Where two headings read alike, the source gives them in different places. Where no end group is shown, it is not given here.
Experiments:
[1] = test system: Gram-negative bacteria (including P. aeruginosa, E. cloacae, K. pneumoniae, E. coli, and A. baumannii); test: Inner membrane depolarization (diSC3-5 release); format: cell-based; conditions: equivalent or superior to melittin, LL37, RI-18, and PMBN
Source text: The mechanism of action of Chp peptides disclosed herein can also be evaluated by measuring the depolarization of the inner membrane of Gram-negative bacteria, including MDR and XDR strains. The inner membrane comprises […] phospholipids such as cardiolipin, phosphatidylglycerol, and phosphatidylserine. This creates a net negative charge at physiological pH, which is believed to enhance the binding of cationic peptides, including the Chp peptides disclosed herein. Upon permeabilization of the outer membrane, the ability of Chp peptides to induce dissipation of the cytoplasmic membrane electrical potential gradient (Ay) may be examined, for example by following the release of 3,3′-dipropylthiadicarbocyanine (diSC3-5) as a function of time compared to an untreated control. DiSC3-5 is a fluorophore that is a caged cation concentrated within the bacterial inner membrane and under the influence of the bacterial membrane electrical potential gradient. At high concentrations, diSC3-5 self-quenches, leading to the suppression of fluorescence. When the inner membrane deteriorates or becomes leaky for cations, including protons, the Δψ dissipates, which leads to a release of diSC3-5 and a subsequent increase in fluorescence. […] Without wishing to be bound by theory, it is believed that the adsorption and binding of Chp peptides to the inner membrane and insertion into the lipid bilayer results in membrane permeabilization and pore/ion channel formation, which is concomitant with the collapse of the membrane's electrical potential.

M. smegmatis = test: MIC against M. smegmatis; format: cell-based, Mycobacterium smegmatis; conditions: M. smegmatis (MC 155); CAAT media
M. tuberculosis = format: cell-based, Mycobacterium tuberculosis
P. apista [2] = format: cell-based, Pandoraea apista
Description: (§1) The MBEC (after 2-hour treatments) was determined as described in Jones and Wozniak, PsI Produced by Mucoid Pseudomonas aeruginosa Contributes to the Establishment of Biofilms and Immune Evasion, Am. Soc. Microbiol. 2017, 8(3):e00864-17. Meropenem and tobramycin were included as controls and were both poorly active, with MBEC90 values of >256 μg/mL (data not shown).

B. cenocepacia [3] = format: cell-based, Burkholderia cenocepacia
Description: as §1

M. abscessus = test: MIC against MDR M. abscessus isolates; format: cell-based, Mycobacterium abscessus; conditions: 7 days; for MIC: AST media (CAAT)
B. multivorans = test: MIC by broth microdilution against B. multivorans; format: cell-based, Burkholderia multivorans; conditions: B. multivorans isolates
Description: (§2) MIC values were determined using a modification of the standard broth microdilution reference method defined by the Clinical and Laboratory Standards Institute (CLSI), CLSL. 2015. Methods for Dilution Antimicrobial Susceptibility Tests for Bacteria That Grow Aerobically; Approved Standard-10th Edition. Clinical and Laboratory Standards Institute, Wayne, PA. The modification was based on the replacement of Mueller Hinton Broth with either CAA media (with and without NaCl) or CAA supplemented with 2.5% human serum. MIC is the minimum concentration of peptide sufficient to suppress at least 80% of the bacterial growth compared to control.
(§3) Based on these nine most prevalent strains, direct lytic agents, including GN370, AM1, AM2, and AM3, were evaluated against various isolates from each of the 9 strains. MICs and MBECs (Example 3) were determined, and a sputum inhibition test was conducted, as described below in Example 5.
(§4) The MICs for were determined as described below using the broth microdilution method for meropenem, GN370, AM1, AM2, and AM3. The results are shown below in Tables 8-12.

M. intracellulare = test: MIC against M. intracellulare; format: cell-based, Mycobacterium intracellulare; conditions: M. intracellulare (ATCC 13950); CAAT media
B. cenocepacia [4] = test: MIC by broth microdilution against B. cenocepacia; format: cell-based, Burkholderia cenocepacia; conditions: B. cenocepacia isolates
Description: as §2, §3, §4

P. apista [5] = test: MIC by broth microdilution against P. apista; format: cell-based, Pandoraea apista; conditions: P. apista isolates
Description: as §2, §3, §4

A. dolens = test: MIC by broth microdilution against A. dolens; format: cell-based, Achromobacter dolens; conditions: A. dolens isolates
Description: as §2, §3, §4

Achromobacter spp. = test: MIC by broth microdilution against Achromobacter spp.; format: cell-based; conditions: Tables 8-12
Description: as §2, §4

M. kansasii = test: MIC against M. kansasii; format: cell-based, Mycobacterium kansasii; conditions: M. kansasi (ATCC 12478); CAAT media
[6] = all tested isolates, Tables 8-12
[7] = α-hemolytic P. aeruginosa isolates (n = 13)

With “MRLKMARRRYRLPRRRSRRLFSRTALRMHPRNRLRRIMRGGIRF [AM1]” the “inner membrane depolarization (diSC3-5)” value [1] was “dose-dependent increase in membrane depolarization”, the “AM1 MIC50” value (S. maltophilia) was 0.5 µg/mL and the “AM1 MIC90” value (S. maltophilia) was 1 µg/mL. The MIC50 (S. maltophilia) was 0.5 µg/mL, the MIC90 (S. maltophilia) was 1 µg/mL and the “MIC Range” value (S. maltophilia; MDR S. maltophilia isolates (n = 8), in µg/mL) was 0.5-1. The MIC50 (S. maltophilia; S. maltophilia isolates) was 0.5 µg/mL, the MIC90 (S. maltophilia; S. maltophilia isolates) was 1 µg/mL and the “MIC Range” value (S. maltophilia; S. maltophilia isolates, in µg/mL) was 0.016-1. For the same sequence, the MIC (S. maltophilia; S. maltophilia test organism of the sputum time-kill assay) was “AM1 (MIC = 0.5)”, the “activity (MIC) against S. maltophilia isolates” value (S. maltophilia; [6]) was “highly active” and the “AM1 MIC Range” value (S. maltophilia; carbapenem-resistant S. maltophilia isolates (n = 23), in µg/mL) was 0.016-1. It also gave an MIC (M. smegmatis) of 4 µg/mL, an MIC (M. tuberculosis; M. tuberculosis (ATCC 35817), (ADC, T) media) of 8 µg/mL and an MIC (M. tuberculosis; M. tuberculosis strain TN8109_LB (MDR), 7H9 broth, 20 days) of 4 µg/mL. It also gave an MIC (M. tuberculosis; M. tuberculosis strain TN8562_M33 (susc), 7H9 broth, 20 days) of 4 µg/mL, an MIC (M. tuberculosis; M. tuberculosis strain TN10525_LL (MDR), 7H9 broth, 20 days) of 8 µg/mL and an MIC (M. tuberculosis; M. tuberculosis strain TN10571_KY (MDR), 7H9 broth, 20 days) of 2 µg/mL. For the same sequence, the MIC (M. tuberculosis; M. tuberculosis strain TN12657_KQ15 (IS), 7H9 broth, 20 days) was 16 µg/mL, the MIC (M. tuberculosis; M. tuberculosis strain TN13923_HD17 (susc), 7H9 broth, 20 days) was 16 µg/mL and the MIC (M. tuberculosis; M. tuberculosis strain TN18349_W738 (susc), 7H9 broth, 20 days) was 0.5 µg/mL. It also gave an MIC (M. tuberculosis; M. tuberculosis strain TN34503_001 (susc), 7H9 broth, 20 days) of 0.5 µg/mL, an MBEC50 (P. apista [2]) of 8 µg/mL and an MBEC90 (P. apista [2]) of 16 µg/mL. The MBEC50 (B. cenocepacia [3]) was 16 µg/mL, the MBEC90 (B. cenocepacia [3]) was 32 µg/mL and the “MBEC Range” value (B. cenocepacia [3]) was 2 to 32 µg/mL. The “activity (MIC) against M. abscessus” value (M. abscessus; 5 clinical MDR strains and 1 ATCC strain, CAAT) was “highly active”, the MIC (M. abscessus; M. abscessus strain BK51402) was 1 µg/mL and the MIC (M. abscessus; M. abscessus strain BK51403 (ATCC 19977)) was 2 µg/mL. For the same sequence, the MIC (M. abscessus; M. abscessus strain BK51408) was 4 µg/mL, the MIC (M. abscessus; M. abscessus strain BK55096) was 1 µg/mL and the MIC (M. abscessus; M. abscessus strain BK55691) was 1 µg/mL. For the same sequence, the MIC (M. abscessus; M. abscessus strain BK58156) was 2 µg/mL, the MIC50 (B. multivorans) was 128 µg/mL and the MIC90 (B. multivorans) was > 128 µg/mL. The MIC (M. intracellulare) was 0.5 µg/mL, the “AM1 MIC50” value (P. aeruginosa) was 0.25 µg/mL and the “AM1 MIC90” value (P. aeruginosa) was 0.5 µg/mL. For the same sequence, the MIC50 (P. aeruginosa) was 0.25 µg/mL, the MIC90 (P. aeruginosa) was 0.5 µg/mL and the “MIC Range” value (P. aeruginosa; MDR P. aeruginosa isolates (n = 13), in µg/mL) was 0.016-0.5. For the same sequence, the MIC50 (P. aeruginosa; P. aeruginosa isolates) was 0.25 µg/mL, the MIC90 (P. aeruginosa; P. aeruginosa isolates) was 0.5 µg/mL and the MIC (P. aeruginosa; P. aeruginosa test organism of the sputum time-kill assay) was “(MIC = 1)”. For the same sequence, the “activity (MIC) against P. aeruginosa isolates” value (P. aeruginosa; [6]) was “highly active”, the “AM1 MIC Range” value (P. aeruginosa; carbapenem-resistant P. aeruginosa isolates (n = 17)) was 0.016-0.5 and the MIC50 (P. aeruginosa; [7]) was 0.25 µg/mL. For the same sequence, the MIC90 (P. aeruginosa; [7]) was 0.5 µg/mL, the MIC50 (B. cenocepacia [4]) was > 128 µg/mL and the MIC90 (B. cenocepacia [4]) was > 128 µg/mL. The MIC50 (P. apista [5]) was 64 µg/mL, the MIC90 (P. apista [5]) was > 128 µg/mL and the MIC50 (A. dolens) was 1 µg/mL. For the same sequence, the MIC90 (A. dolens) was 2 µg/mL, the “MIC Range” value (A. dolens; in µg/mL) was 0.06-4 and the “activity (MIC) against Achromobacter spp.” value (Achromobacter spp.) was “highly active”. It also gave an MIC (M. kansasii) of 2 µg/mL.

— patent US20240181022A1, “AMURINS LYSINS, AND LYSIN-ANTIMICROBIAL PEPTIDE (AMP) CONSTRUCTS ACTIVE AGAINST GRAM-NEGATIVE BACTERIA” (priority 2021, published 2024)
